This note sets out measurements from PMC10507085, “Pharmacological inhibition of TBK1/IKKε blunts immunopathology in a murine model of SARS-CoV-2 infection” (Nature Communications, 2023).

Holding throughout (assay): biochemical
Common to all, as to design: KINOMEscan competition binding, DNA-tagged kinase against immobilised ligand, qPCR read-out
(Real-time PCR tracks product formation cycle by cycle.)

Assay [1] concerns the target PDGFRB (Homo sapiens, UniProt P09619). Conditions: read-out: Percent Control.
Assay [2] has as its target T1, KIAA0999 (Homo sapiens, UniProt Q9Y2K2).
T1 construct: gene SIK3
Conditions: read-out: Percent Control.

The target of assay [3] is TAOK2 (Homo sapiens, UniProt Q9UL54). Conditions: read-out: Percent Control.
The target of assay [4] is MAP3K1 (Homo sapiens, UniProt Q13233). Conditions: read-out: Percent Control.
In assay [5] the target is PRKX (Homo sapiens, UniProt P51817). Conditions: read-out: Percent Control.
Assay [6] concerns the target HIPK3 (Homo sapiens, UniProt Q9H422). The conditions noted are these: read-out: Percent Control.
Assay [7] has as its target PRKCI (Homo sapiens, UniProt P41743). The conditions noted are these: read-out: Percent Control.
The target of assay [8] is BTK (Homo sapiens, UniProt Q06187). The conditions noted are these: read-out: Percent Control.
Assay [9] addresses PIK3CD (Homo sapiens, UniProt O00329). Conditions: read-out: Percent Control.
Assay [10] deals with BUB1 (Homo sapiens, UniProt O43683). The conditions noted are these: read-out: Percent Control.
Sequence of BUB1 (O43683 whole entry): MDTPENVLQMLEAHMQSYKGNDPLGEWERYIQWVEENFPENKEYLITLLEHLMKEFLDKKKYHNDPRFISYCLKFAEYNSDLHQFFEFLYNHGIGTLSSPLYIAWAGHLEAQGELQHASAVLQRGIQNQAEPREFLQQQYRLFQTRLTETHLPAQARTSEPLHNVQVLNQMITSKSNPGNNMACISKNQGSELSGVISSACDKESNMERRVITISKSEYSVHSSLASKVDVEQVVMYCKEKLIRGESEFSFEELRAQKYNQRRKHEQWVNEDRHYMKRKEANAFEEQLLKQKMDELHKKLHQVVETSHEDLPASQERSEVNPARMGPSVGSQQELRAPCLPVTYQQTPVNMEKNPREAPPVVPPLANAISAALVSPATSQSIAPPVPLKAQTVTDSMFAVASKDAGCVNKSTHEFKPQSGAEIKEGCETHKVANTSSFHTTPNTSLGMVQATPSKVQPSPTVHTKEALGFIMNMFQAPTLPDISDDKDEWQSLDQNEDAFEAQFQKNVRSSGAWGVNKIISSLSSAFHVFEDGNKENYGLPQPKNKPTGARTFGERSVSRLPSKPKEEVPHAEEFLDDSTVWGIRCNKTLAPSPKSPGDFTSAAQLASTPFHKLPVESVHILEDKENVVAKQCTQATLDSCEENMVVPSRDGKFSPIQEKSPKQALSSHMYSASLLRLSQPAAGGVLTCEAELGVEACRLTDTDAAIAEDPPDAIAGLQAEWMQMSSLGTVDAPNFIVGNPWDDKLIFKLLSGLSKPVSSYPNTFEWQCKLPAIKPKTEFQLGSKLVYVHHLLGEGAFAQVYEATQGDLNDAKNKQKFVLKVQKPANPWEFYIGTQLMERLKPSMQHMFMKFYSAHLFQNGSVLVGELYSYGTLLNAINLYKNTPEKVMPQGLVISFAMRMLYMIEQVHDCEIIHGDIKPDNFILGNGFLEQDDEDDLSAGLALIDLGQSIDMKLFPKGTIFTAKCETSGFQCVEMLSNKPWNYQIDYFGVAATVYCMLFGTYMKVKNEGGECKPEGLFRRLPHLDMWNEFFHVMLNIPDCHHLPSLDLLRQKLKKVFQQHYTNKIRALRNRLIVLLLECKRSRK
In assay [11] the target is CAMK1D (Homo sapiens, UniProt Q8IU85). Conditions: read-out: Percent Control.
For assay [12], the target named is T2, JAK2(JH1domain-catalytic) (Homo sapiens, UniProt O60674).
T2 construct: JH1 domain catalytic
Conditions: read-out: Percent Control.

Assay [13] concerns the target PIK3C3 (Homo sapiens, UniProt Q8NEB9). Conditions: read-out: Percent Control.
Assay [14] has as its target SRPK2 (Homo sapiens, UniProt P78362). The conditions noted are these: read-out: Percent Control.
Assay [15] concerns the target INSRR (Homo sapiens, UniProt P14616). Conditions: read-out: Percent Control.
Assay [16] deals with CDK4-cyclinD3 (Homo sapiens, UniProt P11802). The conditions noted are these: read-out: Percent Control.
Assay [17] has as its target MAP3K7 (Homo sapiens, UniProt O43318). Conditions: read-out: Percent Control.
The target of assay [18] is MAP2K3 (Homo sapiens, UniProt P46734). Conditions: read-out: Percent Control.
Sequence of MAP2K3 (P46734 whole entry): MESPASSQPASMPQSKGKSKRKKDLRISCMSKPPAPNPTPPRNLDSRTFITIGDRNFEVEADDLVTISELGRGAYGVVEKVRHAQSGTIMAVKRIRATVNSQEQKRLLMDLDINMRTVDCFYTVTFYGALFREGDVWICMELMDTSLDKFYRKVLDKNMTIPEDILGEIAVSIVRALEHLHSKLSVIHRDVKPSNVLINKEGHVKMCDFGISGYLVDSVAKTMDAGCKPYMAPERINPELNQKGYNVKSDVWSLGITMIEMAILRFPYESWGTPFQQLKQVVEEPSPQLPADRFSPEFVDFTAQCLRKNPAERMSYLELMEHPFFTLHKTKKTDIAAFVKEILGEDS
Assay [19] has as its target MAP3K19 (Homo sapiens, UniProt Q56UN5). In short, it runs like this: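 Compound tested as an 11-point, 3-fold dilution series (DMSO stocks at 100×, 1× in assay) for displacing DNA-tagged kinase from an immobilised ligand. Kinase remaining on the ligand is read out by qPCR.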
The target of assay [20] is MAPK12 (Homo sapiens, UniProt P53778). Conditions: read-out: Percent Control.

Sequence of MAP3K19 (Q56UN5 whole entry): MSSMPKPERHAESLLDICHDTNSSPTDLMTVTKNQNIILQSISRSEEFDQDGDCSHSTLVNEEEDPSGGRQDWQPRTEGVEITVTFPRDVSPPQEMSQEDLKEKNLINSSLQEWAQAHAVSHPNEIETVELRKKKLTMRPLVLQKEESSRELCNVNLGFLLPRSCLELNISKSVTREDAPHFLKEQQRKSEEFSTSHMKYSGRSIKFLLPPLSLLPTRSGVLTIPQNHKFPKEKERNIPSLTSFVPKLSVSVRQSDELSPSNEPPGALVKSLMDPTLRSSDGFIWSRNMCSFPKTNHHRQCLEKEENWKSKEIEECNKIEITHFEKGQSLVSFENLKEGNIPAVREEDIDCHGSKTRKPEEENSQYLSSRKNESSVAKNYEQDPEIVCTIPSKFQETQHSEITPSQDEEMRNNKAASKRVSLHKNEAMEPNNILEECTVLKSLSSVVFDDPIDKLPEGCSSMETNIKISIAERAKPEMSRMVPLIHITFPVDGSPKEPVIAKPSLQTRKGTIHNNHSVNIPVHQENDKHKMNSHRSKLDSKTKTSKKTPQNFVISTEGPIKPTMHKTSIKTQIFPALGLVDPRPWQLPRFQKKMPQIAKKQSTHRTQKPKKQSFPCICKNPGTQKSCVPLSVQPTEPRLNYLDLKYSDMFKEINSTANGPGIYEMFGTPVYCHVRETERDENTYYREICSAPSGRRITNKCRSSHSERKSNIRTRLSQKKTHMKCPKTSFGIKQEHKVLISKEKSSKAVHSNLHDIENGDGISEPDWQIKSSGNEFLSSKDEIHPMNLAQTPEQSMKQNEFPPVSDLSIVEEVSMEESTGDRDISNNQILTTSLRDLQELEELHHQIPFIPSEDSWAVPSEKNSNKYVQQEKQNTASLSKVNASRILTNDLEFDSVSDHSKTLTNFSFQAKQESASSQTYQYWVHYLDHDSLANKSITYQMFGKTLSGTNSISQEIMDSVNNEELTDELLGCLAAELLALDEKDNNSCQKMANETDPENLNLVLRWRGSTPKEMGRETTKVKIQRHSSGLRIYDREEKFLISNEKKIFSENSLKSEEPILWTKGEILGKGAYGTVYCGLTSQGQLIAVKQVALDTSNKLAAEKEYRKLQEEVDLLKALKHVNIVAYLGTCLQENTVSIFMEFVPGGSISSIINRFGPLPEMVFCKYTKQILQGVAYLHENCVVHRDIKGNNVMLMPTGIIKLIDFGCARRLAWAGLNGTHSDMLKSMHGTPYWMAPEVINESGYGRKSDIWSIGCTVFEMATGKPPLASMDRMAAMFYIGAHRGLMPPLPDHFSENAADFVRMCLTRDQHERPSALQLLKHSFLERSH
Sequence of PIK3C3 (Q8NEB9 whole entry): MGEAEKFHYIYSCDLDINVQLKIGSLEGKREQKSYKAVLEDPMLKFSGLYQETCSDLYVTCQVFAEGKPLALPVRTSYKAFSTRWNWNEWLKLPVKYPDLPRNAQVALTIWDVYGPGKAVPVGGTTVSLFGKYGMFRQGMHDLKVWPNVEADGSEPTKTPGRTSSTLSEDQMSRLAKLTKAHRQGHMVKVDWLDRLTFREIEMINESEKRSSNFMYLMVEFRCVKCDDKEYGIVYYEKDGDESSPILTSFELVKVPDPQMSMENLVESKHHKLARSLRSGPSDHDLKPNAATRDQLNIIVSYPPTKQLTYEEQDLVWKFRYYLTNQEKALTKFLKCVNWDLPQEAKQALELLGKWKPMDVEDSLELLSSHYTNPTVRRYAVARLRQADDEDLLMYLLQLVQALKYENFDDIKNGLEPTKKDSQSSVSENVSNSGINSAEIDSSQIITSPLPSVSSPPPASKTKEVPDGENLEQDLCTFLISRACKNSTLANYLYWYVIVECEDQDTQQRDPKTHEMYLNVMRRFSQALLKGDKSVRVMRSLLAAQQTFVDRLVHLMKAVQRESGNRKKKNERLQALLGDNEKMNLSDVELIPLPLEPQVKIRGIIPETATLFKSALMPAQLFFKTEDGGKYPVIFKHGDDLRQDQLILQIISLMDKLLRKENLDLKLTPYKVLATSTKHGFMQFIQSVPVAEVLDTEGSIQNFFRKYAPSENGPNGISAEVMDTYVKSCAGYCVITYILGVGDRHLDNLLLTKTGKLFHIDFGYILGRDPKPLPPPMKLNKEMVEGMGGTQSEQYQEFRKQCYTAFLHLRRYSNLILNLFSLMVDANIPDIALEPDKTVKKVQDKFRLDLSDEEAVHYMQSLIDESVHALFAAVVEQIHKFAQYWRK
Sequence of HIPK3 (Q9H422 whole entry): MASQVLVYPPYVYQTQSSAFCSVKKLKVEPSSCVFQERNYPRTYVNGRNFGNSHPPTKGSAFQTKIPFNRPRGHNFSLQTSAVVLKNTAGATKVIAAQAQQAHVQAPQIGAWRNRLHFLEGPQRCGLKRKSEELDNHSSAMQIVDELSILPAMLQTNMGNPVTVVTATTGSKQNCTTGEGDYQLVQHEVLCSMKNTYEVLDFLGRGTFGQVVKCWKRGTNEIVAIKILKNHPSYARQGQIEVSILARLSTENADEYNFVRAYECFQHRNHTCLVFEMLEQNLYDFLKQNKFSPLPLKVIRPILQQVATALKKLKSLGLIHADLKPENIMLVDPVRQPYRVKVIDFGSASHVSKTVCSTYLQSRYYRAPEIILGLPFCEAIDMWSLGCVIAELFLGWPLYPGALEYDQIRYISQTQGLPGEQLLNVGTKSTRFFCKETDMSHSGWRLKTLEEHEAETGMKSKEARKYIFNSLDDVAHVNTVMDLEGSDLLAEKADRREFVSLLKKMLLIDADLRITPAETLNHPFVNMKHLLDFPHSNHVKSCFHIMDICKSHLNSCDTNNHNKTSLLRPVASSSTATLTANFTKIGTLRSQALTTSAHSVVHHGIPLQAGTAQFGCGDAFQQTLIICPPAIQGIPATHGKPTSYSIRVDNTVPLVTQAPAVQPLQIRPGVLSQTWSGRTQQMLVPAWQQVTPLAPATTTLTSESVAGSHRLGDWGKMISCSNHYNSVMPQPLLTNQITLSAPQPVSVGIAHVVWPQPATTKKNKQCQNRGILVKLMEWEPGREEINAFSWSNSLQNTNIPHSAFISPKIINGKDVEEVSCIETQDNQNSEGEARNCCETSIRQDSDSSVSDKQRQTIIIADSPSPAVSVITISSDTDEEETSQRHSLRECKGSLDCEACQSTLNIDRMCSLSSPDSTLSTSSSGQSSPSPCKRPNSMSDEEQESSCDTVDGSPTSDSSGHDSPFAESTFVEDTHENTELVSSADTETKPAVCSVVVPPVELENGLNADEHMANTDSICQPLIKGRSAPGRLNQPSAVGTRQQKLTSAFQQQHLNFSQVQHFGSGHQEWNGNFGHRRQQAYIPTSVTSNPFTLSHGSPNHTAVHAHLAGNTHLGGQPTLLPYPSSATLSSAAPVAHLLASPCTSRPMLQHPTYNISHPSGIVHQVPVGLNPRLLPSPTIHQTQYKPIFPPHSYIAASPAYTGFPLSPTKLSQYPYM

For `Oc1ccc(C2=Cc3ccc(O)cc3OC2)cc1` [compound 1, idronoxil], the remaining binding at 10 µM turned out to be 18% in [1]; 89% in [2]; 90% in assay [3]; 76% in assay [4]; 88% in [5]; 33% in assay [6]. Moreover, the remaining binding at 10 µM in assay [7] is 70%; in assay [8] it was 97%; in assay [9], 86%; in [10], 91%; in [11], 100%; in assay [12] it was 81%. The remaining binding at 10 µM is 34% in assay [13]; 99% in [14]; 94% in assay [15]; 85% in assay [16]; 89% in assay [17]; 56% in [18]. Further, the figures for the remaining binding at 10 µM in assay [19] (read-out: Percent Control) and in [20] were 12% and 100%, respectively. In addition, the Kd – broadly, the free concentration of one partner at which half of the binding sites on the other are occupied at equilibrium, for simple one-to-one binding – in [19] amounted to 2200 nM.
